pEC50: −log10 of the molar value.

The first experiment has as its system HBV. The experiment in a line: HBV-DNA Antiviral Assay Using HepG2.2.15 Cells (extracellular HBV DNA by qPCR). The experiment is classed as cell-based, hepatitis B virus (HBV). The conditions noted are these: HBV DNA inhibition, HepG2.2.15 cells, extracellular HBV DNA by qPCR; read-out: EC50. The procedure:
The following assay procedure describes the HBV antiviral assay. This assay uses HepG2.2.15 cells, which have been transfected with HBV genome, and extracellular HBV DNA quantification as endpoint. Cell viability is assessed in parallel by measuring the intracellular ATP content using the CellTiter-Glo® reagent from Promega.
On day 0, HepG2.2.15 cells were seeded in 96-well plates at a density of 6.0×10^4 cells/well (0.1 mL/well). The cells were incubated at 37° C. and 5% CO2.
On day 1, the test articles were diluted and added to cell culture wells (8 concentrations, 4-fold dilution, in duplicate). GLS4, Tenofovir and Sorafenib were used as reference compounds. 100 μL of culture medium containing the compounds was added to the plate, and the final total volume per well was 200 μL. The final concentration of DMSO in the culture medium was 0.5%. The plate map of compound treatment is shown below. The cells were cultured at 37° C. and 5% CO2 for 3 days.
On day 4, the plates were refreshed with culture media with compounds.
On day 7, cell viability was assessed using the CellTiter-Glo®, and the cell culture supernatants were collected for determination of HBV DNA by qPCR.
Extracellular DNA was isolated with QIAamp 96 DNA Blood Kit per the manufacturer's manual. HBV DNA was then quantified by qPCR with HBV specific primers and probes as specified in Table 1 using the FastStart Universal MasterMix from Roche on an ABI-7900HT. The PCR cycle program consisted of 95° C. for 10 min, followed by 40 cycles at 95° C. for 15 sec and 60° C. for 1 min.
A DNA standard was prepared by dilution of the pAAV2 HBV1.3 plasmid with concentrations ranging from 10 to 1×10^7 copies/uL and used to generate a standard curve by plotting Ct value vs. the concentration of the HBV plasmid DNA standard. The quantity of HBV DNA in each sample was determined by interpolating from the standard curve.
Cell viability was calculated as follows: % Cell viability=(luminescence value of test sample−average luminescence value of blank)/(average luminescence value of 0.5% DMSO control−average luminescence of blank)×100%. HBV DNA inhibition was calculated as follows: 100−(HBV DNA copy number of test sample−HBV DNA copy number of ETV)/HBV DNA copy number of 0.5% DMSO control−HBV DNA copy number of ETV)×100%. The CC50, EC50 and EC90 values were determined by dose-response curves fitted by GraphPad Prism using “log (agonist) vs. response—Variable slope”.
For `Cc1c(C(=O)C(=O)NC(C)(C)c2ccc(F)cn2)c(C)n(C)c1C(=O)Nc1ccc(F)c(C(F)(F)F)c1` [Compound 147, 4-[2-[[l-(5-fluoro-2-pyridyl)-1-methyl-ethyl]amino]-2-oxo-acetyl]-N-[4-fluoro-3-(trifluoromethyl)phenyl]-1,3,5-trimethyl-pyrrole-2-carboxamide], the pEC50 was 8.00 to 9.00.

Take `Cc1c(C(=O)C(=O)NC2(c3cn(C4CC4)nn3)CC(F)(F)C2)c(C)n(C)c1C(=O)Nc1ccc(F)c(C(F)(F)F)c1` [Compound 146, 4-[2-[[1-(1-cyclopropyltriazol-4-yl)-3,3-difluoro-cyclobutyl]amino]-2-oxo-acetyl]-N-[4-fluoro-3-(trifluoromethyl)phenyl]-1,3,5-trimethyl-pyrrole-2-carboxamide]: the pEC50 is 8.00 to 9.00.

As for `Cc1c(C(=O)C(=O)NC2(c3cnn(C4CC4)n3)CC(F)(F)C2)c(C)n(C)c1C(=O)Nc1ccc(F)c(C(F)(F)F)c1` [Compound 142, 4-[2-[[1-(2-cyclopropyltriazol-4-yl)-3,3-difluoro-cyclobutyl]amino]-2-oxo-acetyl]-N-[4-fluoro-3-(trifluoromethyl)phenyl]-1,3,5-trimethyl-pyrrole-2-carboxamide], the pEC50 is 8.00 to 9.00.

`Cc1c(C(=O)C(=O)NC2(c3c[nH]nn3)COC2)c(C)n(C)c1C(=O)Nc1ccc(F)c(C#N)c1` [Compound 29, N-(3-cyano-4-fluoro-phenyl)-1,3,5-trimethyl-4-[2-oxo-2-[[3-(1H-triazol-4-yl)oxetan-3-yl]amino]acetyl]pyrrole-2-carboxamide]: the pEC50 was 8.00 to 9.00.

The same experiment, now with this note: Hepatitis B virus; HBV DNA inhibition, HepG2.2.15 cells, extracellular HBV DNA by qPCR; read-out: EC50.
On to `C#C[C@](CO)(NC(=O)C(=O)c1c(C)c(C(=O)Nc2ccc(F)c(C#N)c2)n(C)c1C)C1CC1` [Compound 63a, N-(3-cyano-4-fluoro-phenyl)-1,3,5-trimethyl-4-[2-oxo-2-[[(1R)-1-cyclopropyl-1-(hydroxymethyl)prop-2-ynyl]amino]acetyl]pyrrole-2-carboxamide], for which the negative-log EC50 (pEC50) is 8.00 to 9.00.

For `C#CC1(NC(=O)C(=O)c2c(C)c(C(=O)Nc3ccc(F)c(C#N)c3)n(C)c2C)CC1` [Compound 14, N-(3-cyano-4-fluoro-phenyl)-4-[2-[(1-ethynylcyclopropyl)amino]-2-oxo-acetyl]-1,3,5-trimethyl-pyrrole-2-carboxamide], the negative logarithm of the EC50 (pEC50) was over 9.00.

Regarding `C#C[C@@H](NC(=O)C(=O)c1c(C)c(C(=O)Nc2ccc(F)c(C#N)c2)n(C)c1C)C1CC1` [Compound 23b, N-(3-cyano-4-fluoro-phenyl)-1,3,5-trimethyl-4-[2-oxo-2-[[(1S)-1-cyclopropylprop-2-ynyl]amino]acetyl]pyrrole-2-carboxamide], the negative-log EC50 (pEC50) is over 9.00.

Consider `Cc1c(C(=O)C(=O)NC2(c3c[nH]cn3)COC2)c(C)n(C)c1C(=O)Nc1ccc(F)c(C(F)(F)F)c1` [Compound 156, N-[4-fluoro-3-(trifluoromethyl)phenyl]-4-[2-[[3-(1H-imidazol-4-yl)oxetan-3-yl]amino]-2-oxo-acetyl]-1,3,5-trimethyl-pyrrole-2-carboxamide], for which the negative-log EC50 (pEC50) was over 9.00.

Regarding `C#C[C@H](NC(=O)C(=O)c1c(C)c(C(=O)Nc2ccc(F)c(C#N)c2)n(C)c1C)C1CC1` [Compound 23a, N-(3-cyano-4-fluoro-phenyl)-1,3,5-trimethyl-4-[2-oxo-2-[[(1R)-1-cyclopropylprop-2-ynyl]amino]acetyl]pyrrole-2-carboxamide], the pEC50 is over 9.00.

Turning to `Cc1c(C(=O)C(=O)NC(C)(C)c2ccccn2)c(C)n(C)c1C(=O)Nc1ccc(F)c(C(F)(F)F)c1` [Compound 99, N-[4-fluoro-3-(trifluoromethyl)phenyl]-1,3,5-trimethyl-4-[2-[[1-methyl-1-(2-pyridyl)ethyl]amino]-2-oxo-acetyl]pyrrole-2-carboxamide], the negative logarithm of the EC50 (pEC50) is 8.00 to 9.00.

For the compound `C#C[C@H](CO)NC(=O)C(=O)c1c(C)c(C(=O)Nc2ccc(F)c(C#N)c2)n(C)c1C` (single isomer, unassigned) [Compound 31b], the pEC50 is 8.00 to 9.00.

In the case of `C#CC1(NC(=O)C(=O)c2c(C)c(C(=O)Nc3ccc(F)c(C#N)c3)n(C)c2C)CCOCC1` [Compound 107, N-(3-cyano-4-fluoro-phenyl)-4-[2-[(4-ethynyltetrahydropyran-4-yl)amino]-2-oxo-acetyl]-1,3,5-trimethyl-pyrrole-2-carboxamide], the negative-log EC50 (pEC50) was 8.00 to 9.00.

Consider `C#CC(C)(C)NC(=O)C(=O)c1c(C)c(C(=O)Nc2ccc(F)c(C(F)(F)F)c2)n(C)c1C` [Compound 35, 4-[2-(1,1-dimethylprop-2-ynylamino)-2-oxo-acetyl]-N-[4-fluoro-3-(trifluoromethyl)phenyl]-1,3,5-trimethyl-pyrrole-2-carboxamide], for which the pEC50 was over 9.00.

With `C#CC(C)(C)NC(=O)C(=O)c1c(C)c(C(=O)Nc2ccc(F)c(F)c2)n(C)c1C` [Compound 90, N-(3,4-difluorophenyl)-4-[2-(1,1-dimethylprop-2-ynylamino)-2-oxo-acetyl]-1,3,5-trimethyl-pyrrole-2-carboxamide], the pEC50 was 8.00 to 9.00.

`Cc1c(C(=O)C(=O)NC(C)(C)c2ccncc2)c(C)n(C)c1C(=O)Nc1ccc(F)c(C#N)c1` [Compound 93, N-(3-cyano-4-fluoro-phenyl)-1,3,5-trimethyl-4-[2-[[1-methyl-1-(4-pyridyl)ethyl]amino]-2-oxo-acetyl]pyrrole-2-carboxamide]: the negative-log EC50 (pEC50) was 8.00 to 9.00.

On to `Cc1c(C(=O)C(=O)NC2(c3c[nH]cn3)COC2)c(C)n(C)c1C(=O)Nc1ccc(F)c(C#N)c1` [Compound 157, N-(3-cyano-4-fluoro-phenyl)-4-[2-[[3-(1H-imidazol-4-yl)oxetan-3-yl]amino]-2-oxo-acetyl]-1,3,5-trimethyl-pyrrole-2-carboxamide], for which the negative logarithm of the EC50 (pEC50) is 8.00 to 9.00.

In the case of `Cc1c(C(=O)C(=O)NC2(C#CCO)COC2)c(C)n(C)c1C(=O)Nc1ccc(F)c(C#N)c1` [Compound 76, N-(3-cyano-4-fluoro-phenyl)-4-[2-[[3-(3-hydroxyprop-1-ynyl)oxetan-3-yl]amino]-2-oxo-acetyl]-1,3,5-trimethyl-pyrrole-2-carboxamide], the negative logarithm of the EC50 (pEC50) was 7.00 to 8.00.

As for `C=CC1(NC(=O)C(=O)c2c(Cl)c(C(=O)Nc3ccc(F)c(C#N)c3)n(C)c2C)CC(F)(F)C1` [Compound 51, 3-chloro-N-(3-cyano-4-fluoro-phenyl)-4-[2-[(3,3-difluoro-1-vinyl-cyclobutyl)amino]-2-oxo-acetyl]-1,5-dimethyl-pyrrole-2-carboxamide], the pEC50 is over 9.00.

As to `C#CC1(NC(=O)C(=O)c2c(C)c(C(=O)Nc3ccc(Br)c(Cl)c3)n(C)c2C)CC(F)(F)C1` [Compound 134, N-(4-bromo-3-chloro-phenyl)-4-[2-[(1-ethynyl-3,3-difluoro-cyclobutyl)amino]-2-oxo-acetyl]-1,3,5-trimethyl-pyrrole-2-carboxamide], the negative logarithm of the EC50 (pEC50) is 8.00 to 9.00.

`C#CC1(NC(=O)C(=O)c2c(C)c(C(=O)Nc3ccnc(Br)c3F)n(C)c2C)COC1` [Compound 83, N-(2-bromo-3-fluoro-4-pyridyl)-4-[2-[(3-ethynyloxetan-3-yl)amino]-2-oxo-acetyl]-1,3,5-trimethyl-pyrrole-2-carboxamide]: the pEC50 is 8.00 to 9.00.

For `Cc1c(C(=O)C(=O)NC2(c3cn[nH]c3)COC2)c(C)n(C)c1C(=O)Nc1ccc(F)c(C#N)c1` [Compound 151, N-(3-cyano-4-fluoro-phenyl)-1,3,5-trimethyl-4-[2-oxo-2-[[3-(1H-pyrazol-4-yl)oxetan-3-yl]amino]acetyl]pyrrole-2-carboxamide], the pEC50 was 8.00 to 9.00.

As for `C#C[C@H](NC(=O)C(=O)c1c(C)c(C(=O)Nc2ccc(F)c(C#N)c2)n(C)c1C)C(C)(C)C` [Compound 30a, N-(3-cyano-4-fluoro-phenyl)-1,3,5-trimethyl-4-[2-oxo-2-[[(1R)-1-tert-butylprop-2-ynyl]amino]acetyl]pyrrole-2-carboxamide], the pEC50 was over 9.00.

With `Cc1c(C(=O)C(=O)NC2(c3ccncc3)CC(F)(F)C2)c(C)n(C)c1C(=O)Nc1ccc(F)c(C(F)(F)F)c1` [Compound 150, 4-[2-[[3,3-difluoro-1-(4-pyridyl)cyclobutyl]amino]-2-oxo-acetyl]-N-[4-fluoro-3-(trifluoromethyl)phenyl]-1,3,5-trimethyl-pyrrole-2-carboxamide], the pEC50 is over 9.00.

Take `C#CC1(NC(=O)C(=O)c2c(C)c(C(=O)Nc3ccnc(F)c3Br)n(C)c2C)CC(F)(F)C1` [Compound 68, N-(3-bromo-2-fluoro-4-pyridyl)-4-[2-[(1-ethynyl-3,3-difluoro-cyclobutyl)amino]-2-oxo-acetyl]-1,3,5-trimethyl-pyrrole-2-carboxamide]: the pEC50 was over 9.00.
